# According to patent publication US8901090B2, “Method of treating otitis externa using macrocyclic lactone compound” (Galderma S.A., priority 2010, dated 2014):
# Test: Topical treatment of patients with acute otitis externa with ivermectin lotion (informal trials, Examples 3-6)
# Type: in vivo, human
# Description: The otic composition of the present invention described above is applied into the external auditory canal and on the auricle of the affected ear. The lotion, gel, or ointment can be applied with an applicator into the external auditory canal by the patient or others. Preferably, the applicator has a smooth surface, for example, a glass rod, coated with the lotion, gel, or ointment. Although cotton swab can be used, precaution should be exercised, because cotton swab is rough and it can cause irritation to the epidermis of the external auditory canal, and cotton residue left in the ear canal can cause further complication of the condition. The composition in the form of liquid suspension can be dropped or sprayed into the external auditory canal. The otic composition can be packaged for proper dosing by the patients. Moreover, the otic composition can also be integrated into or applied on an absorbent material, such as a strip of cotton fabric or medical dressing, and then the absorbent material is inserted into the external auditory canal by a physician as needed.
# Operating with informed consent of individuals, individuals were treated with the otic composition and the method of the present invention for treating otitis externa, as described in Examples 3 to 7.
# A person presented with acute otitis externa, symptoms including pain, tenderness, and swelling of the right ear canal. […]
substance,measurement,setting,value
ivermectin,effectiveness in treating otitis externa,otic composition containing ivermectin at a concentration as low as 0.075%,effective
same,time until dramatic resolution of the symptoms,"summary of Examples 3 through 6, otic composition containing 0.075% of ivermectin",≤ 24 h
